From patent US4956384A, “1,4:3,6-dianhydrosorbitol 2-mononitrate and 5-mononitrate esters and pharmaceutical compositions therefrom” (Chiesi Farmaceutici S.p.A., priority 1987, dated 1990)
Where two headings read alike, the source gives them in different places.

Columns and labels:
[1] = octanol/water partition coefficient; format: physicochemical; settings: for logP: octanol/water, read-out: Partition coeff. (octanol/H2O) (converted)
[2] = Hypotensive activity in anesthetized rats (mean arterious pressure, i.v. bolus); format: in vivo, male albino rats (D strain, Charles River); settings: for Potency ratio, In vivo: Table III; for ED20: iv, read-out: ED20, dose reducing by 20% the mean arterious pressure (graphically calculated)
Description: Male albino rats were used (D strain, Charles River) anesthetized with a starting dose of sodium pentobarbital of 60 mg/kg i.p. and thermoregulated at 37° C. Mean arterious pressure was monitored at right carotidis arteria, while the compounds were administered as a bolus into the jugular vein, at constant volumes of 0.3 and 1 ml/kg.
The results, expressed as ED20, dose causing a 20% reduction in the mean arterious pressure (graphically calculated) are expressed in table III, relating to compounds substituted at the 2- and 5-positions.

[3] = tested on: helicoidal strips of rabbit aorta; test: In vitro vasodilating activity: inhibition of K+-induced contraction of aorta strips; format: cell-based, male albino rabbits (New Zealand strain); settings: for IC50: Oryctolagus cuniculus, read-out: ED50 (concentration causing a 50% inhibition of contraction); for Potency ratio, In vitro: Table III; for times more active than the starting mononitrate: in vitro, II vs IS-5N, X vs IS-2N
Description: Aorta strips from male albino rabbits (New Zealand strain), prepared according to the method by Furchgott and Bhadrakom--J. Pharm. Exp. Ther. 108, 129 (1953), were contracted with a solution enriched in K^+ (100 mM). When the contraction was stable, the test compounds were added, according to the method of cumulative dosages.
The responses were isometrically recorded and expressed as contraction percentage inhibition. The concentration causing 50% inhibition (ED50) was calculated on the basis of the equation of the linear tract of the dose-response curves. The obtained results expressed as ED50 values are reported in tables I and II (which respectively relate to the compounds substituted at the 2-and and 5-positions), together with the values of the octanol/water partition coefficient. The potency ratio for each compound, in comparison with the starting mononitrate, IS-2-N and IS-5-N, is reported in the same tables.

[4] = Arterious pressure in the anesthetized rabbit, in vein administration; format: in vivo
Source text: The above results are confirmed also in another animal species.

[5] = Table I, 2-acyl derivatives of isosorbide 5-nitrate
[6] = Table I, 2-acyl derivatives of isosorbide 5-nitrate, K+ 100 mM
[7] = Table I, in comparison with isosorbide 5-nitrate
[8] = Table II, 5-acyl derivatives of isosorbide 2-nitrate
[9] = Table II, 5-acyl derivatives of isosorbide 2-nitrate, K+ 100 mM
[10] = Table II, in comparison with isosorbide 2-nitrate

| SMILES | logP [1, 5] | Potency ratio, In vivo ([2]; relative to IS-5-N) | ED20 ([2]; anesthetized rat) | Potency ratios (confidence limits) [3, 7] | Potency ratio, In vitro ([3]; relative to IS-5-N) | logP [1, 8] | Potency ratios (confidence limits) [3, 10] | Potency ratio, In vitro ([3]; relative to IS-2-N) | Potency ratio, In vivo ([2]; relative to IS-2-N) | also measured |
| --- | --- | --- | --- | --- | --- | --- | --- | --- | --- | --- |
| COc1cc(C(=O)O[C@H]2CO[C@H]3[C@@H]2OC[C@H]3O[N+](=O)[O-])cc(OC)c1OC [II, 1,4:3,6-dianhydrosorbitol 2-(3,4,5-trimethoxy)-benzoate 5-nitrate] | 2.09 | ≈ 79 | 1.9 µmol/kg | 113.48 (72.30-172.85) | 113 | – | – | – | – | times more lipophilic than the starting mononitrate [1]: about 140 times; hypotensive activity in words ([2]; rat): remarkable hypotensive activity in both "in vitro" and "in vivo" tests; IC50 [3, 6]: 2.72 µM; times more active than the starting mononitrate [3]: about 110 times; reduction in arterious pressure [4]: dose-depending reduction in arterious pressure; strength of arterious pressure reduction higher than that of IS-2N ([4]; vs IS-2N): about 10 times; strength of arterious pressure reduction higher than that of IS-5N ([4]; vs IS-5N): ~100 times |
| O=C(O)CCC(=O)O[C@H]1CO[C@H]2[C@@H]1OC[C@H]2O[N+](=O)[O-] [XIV, 1,4:3,6-dianhydrosorbitol 5-nitrate 2-(3-carboxy)propionate] | 0.294 | ≈ 0.5 | – | 0.16 (0.10-0.25) | 0.2 | – | – | – | – | ED20 ([2]; Rattus norvegicus): 300 µmol/kg; IC50 [3]: 2100 µM |
| CCCCCCCCCCCCCCCC(=O)O[C@@H]1CO[C@H]2[C@@H]1OC[C@@H]2O[N+](=O)[O-] [VIII, 1,4:3,6-dianhydrosorbitol 2-nitrate 5-palmitate] | – | – | – | – | – | 1.51 | – | – | – | – |
| CCC(=O)O[C@@H]1CO[C@H]2[C@@H]1OC[C@@H]2O[N+](=O)[O-] [IS-5P-2N, isosorbide 2-nitrate 5-propionate, reference compound] | – | – | – | – | – | 0.947 | 15.59 (10.74-22.44) | 15.6 | – | IC50 [3, 9]: 1.54 µM |
| CCOC(=O)CCCCC(=O)O[C@@H]1CO[C@H]2[C@@H]1OC[C@@H]2O[N+](=O)[O-] [XIII, 1,4:3,6-dianhydrosorbitol 2-nitrate 5-(5-ethoxycarbonyl)-pentanoate] | – | – | 2.5 µmol/kg | – | – | 1.58 | 6.65 (4.81-9.10) | 6.6 | ≈ 4.8 | – |
| COc1cc(C(=O)O[C@@H]2CO[C@H]3[C@@H]2OC[C@@H]3O[N+](=O)[O-])cc(OC)c1OC [X, 1,4:3,6-dianhydrosorbitol 5-(3,4,5-trimethoxy)-benzoate 2-nitrate] | – | – | 0.4 µmol/kg | – | – | 2.08 | 1.58 (1.13-2.19) | 1 | ≈ 30 | times more lipophilic than the starting mononitrate [1]: 200 times; IC50 [3, 9]: 13.8 µM; times more active than the starting mononitrate [3]: 1.58 times |
| CC(=O)O[C@H]1CO[C@H]2[C@@H]1OC[C@H]2O[N+](=O)[O-] [IS-2A-5N, isosorbide 2-acetate 5-nitrate, reference compound] | 0.579 | ≈ 60 | 2.5 µmol/kg | 8.21 (5.11-13.13) | 8 | – | – | – | – | IC50 [3, 6]: 33.9 µM |
| COc1cc(C=CC(=O)O[C@@H]2CO[C@H]3[C@@H]2OC[C@@H]3O[N+](=O)[O-])cc(OC)c1OC [IX, 1,4:3,6-dianhydrosorbitol 5-(3,4,5-trimethoxy)cinnamate 2-nitrate] | – | – | 0.6 µmol/kg | – | – | 2.5 | ~3 | 6 | ≈ 20 | – |
| O=[N+]([O-])O[C@H]1CO[C@H]2[C@@H]1OC[C@H]2O [IS-2-N, 1,4:3,6-dianhydrosorbitol 2-nitrate, reference compound] | – | – | – | – | – | -0.231 | 1.0 | 1 | ≈ 1 | ED20 ([2]; Rattus norvegicus): 12 µmol/kg; IC50 [3]: 23.9 µM |
| COc1ccc(C=CC(=O)O[C@@H]2CO[C@H]3[C@@H]2OC[C@@H]3O[N+](=O)[O-])cc1OC [VII, 1,4:3,6-dianhydrosorbitol 5-(3,4-dimethoxy)cinnamate 2-nitrate] | – | – | 0.3 µmol/kg | – | – | 2.2 | ~1 | 1 | ≈ 40 | – |
| COc1ccc(C=CC(=O)O[C@H]2CO[C@H]3[C@@H]2OC[C@H]3O[N+](=O)[O-])cc1OC [IV, 1,4:3,6-dianhydrosorbitol 2-(3,4-dimethoxy)cinnamate 5-nitrate] | 2.96 | ≈ 83 | 1.8 µmol/kg | ~3 | 3 | – | – | – | – | – |
| O=[N+]([O-])O[C@@H]1CO[C@H]2[C@@H]1OC[C@@H]2O [IS-5-N, 1,4:3,6-dianhydrosorbitol 5-nitrate, reference compound] | -0.0501 | 1 | – | 1.0 | 1 | – | – | – | – | ED20 ([2]; Rattus norvegicus): 150 µmol/kg; IC50 [3]: 253 µM |
| CCOC(=O)CCCCC(=O)O[C@H]1CO[C@H]2[C@@H]1OC[C@H]2O[N+](=O)[O-] [XI, 1,4:3,6-dianhydrosorbitol 5-nitrate 2-(5-ethoxycarbonyl)pentanoate] | 1.48 | ≈ 21 | 7 µmol/kg | 6.91 (4.78-9.88) | 7 | – | – | – | – | IC50 [3, 6]: 46.4 µM |
| O=C(CCC(=O)O[C@H]1CO[C@H]2[C@@H]1OC[C@H]2O[N+](=O)[O-])O[C@H]1CO[C@H]2[C@@H]1OC[C@H]2O[N+](=O)[O-] [XII, bis-(1,4:3,6-dianhydrosorbitol 5-nitrate-2-il)succinate] | 1.81 | ≈ 21 | – | ~20 | 7 | – | – | – | – | ED20 ([2]; Rattus norvegicus): 7 µmol/kg |
| CCCCCCCCCCCCCCCC(=O)O[C@H]1CO[C@H]2[C@@H]1OC[C@H]2O[N+](=O)[O-] [III, 1,4:3,6-dianhydrosorbitol 5-nitrate 2-palmitate] | 1.35 | – | – | – | – | – | – | – | – | IC50 [3, 6]: > 10 µM |
| CC(=O)O[C@@H]1CO[C@H]2[C@@H]1OC[C@@H]2O[N+](=O)[O-] [IS-5A-2N, isosorbide 5-acetate 2-nitrate, reference compound] | – | – | 2.2 µmol/kg | – | – | 0.418 | 6.55 (4.60-9.17) | 6.5 | ≈ 5.4 | IC50 [3, 9]: 3.97 µM |
| O=C(C=Cc1ccccc1)O[C@H]1CO[C@H]2[C@@H]1OC[C@H]2O[N+](=O)[O-] [V, 1,4:3,6-dianhydrosorbitol 2-cinnamate 5-nitrate] | – | ≈ 79 | 1.9 µmol/kg | ~1 | 1 | – | – | – | – | Partition coeff. (octanol/H2O) [1]: very high |
| COc1cc(C=CC(=O)O[C@H]2CO[C@H]3[C@@H]2OC[C@H]3O[N+](=O)[O-])cc(OC)c1OC [VI, 1,4:3,6-dianhydrosorbitol 2-(3,4,5-trimethoxy)cinnamate 5-nitrate] | 2.44 | ≈ 94 | 1.6 µmol/kg | 7.08 (4.21-11.67) | 7 | – | – | – | – | – |
| CCC(=O)O[C@H]1CO[C@H]2[C@@H]1OC[C@H]2O[N+](=O)[O-] [IS-2P-5N, isosorbide 5-nitrate 2-propionate, reference compound] | 1.15 | ≈ 65 | 2.3 µmol/kg | 5.19 (3.53-7.52) | 5 | – | – | – | – | IC50 [3, 6]: 56.8 µM |
